US12691070B2, “Cationic lipids and preparation method thereof” (RiboX Therapeutics HK Limited, priority 2023, dated 2026)

Columns and labels:
[1] = LNP size and polydispersity index (PDI) by dynamic light scattering; format: physicochemical; conditions: LNP with cirRNA (SEQ ID NO: 1); for Size: in nm (unit assumed)
Method: (§1) Ionizable lipid, DSPC, Cholesterol and DMG-PEG 2000 were mixed at a molar ratio of 50:10:38.5:1.5 in absolute ethanol. Circular RNA and linear mRNA payloads were suspended in 25 mM Acetate Buffer (pH 4.5). To form LNPs, three volumes of luciferase encoding RNA, in the form of cirRNA (SEQ ID NO:1) and mRNA (SEQ ID NO:2) respectively, were mixed with one volume of lipids in ethanol solution by microfluidic mixing with the Nanoassemblr Ignite (Precision Nanosystems) at a flow rate of 12 ml/min. The molar ratio of ionizable lipid to ribonucleotide was 15 or 6. The final lipid concentration in solution ranged from 1.5 mM to 6 mM. After encapsulation, the particles were dialyzed twice against PBS.
(§2) The LNP size and polydispersity index (PDI), determined by dynamic light scattering (DLS), and zeta potential were measured by a Zetasizer machine (Malvern). RNA concentration and encapsulation efficacy were analyzed by the Quant-IT Ribogreen kit by calculating the percentage encapsulation at 100%−(RNA-LNPs/RNA-LNPs with Triton X-100).

[2] = LNP zeta potential (Zetasizer); format: physicochemical; conditions: LNP with cirRNA (SEQ ID NO: 1)
Method: as §1, §2

[3] = RNA encapsulation efficacy by Quant-IT Ribogreen kit; format: physicochemical; conditions: LNP with cirRNA (SEQ ID NO: 1)
Method: as §1, §2

[4] = system: Hep G2 cells; assay: In vitro expression of firefly-luciferase, Hep G2; format: cell-based; conditions: cirRNA (SEQ ID NO: 1) LNPs; firefly-luciferase luminescence; Hep G2 cells
Method: (§3) RAW 264.7 and Hep G2 cells were transfected with 100 ng/mL of RNA-LNPs encoding for firefly-luciferase. At 72 hours post transfection, the cells were washed and lysed. The luciferase expression was determined in the cell lysates with the luciferase assay reagent kit (Promega), according to the kit protocol, luciferase activity was measured by a luminometer.

[5] = system: RAW 264.7 cells; assay: In vitro expression of firefly-luciferase, RAW 264.7; format: cell-based; conditions: cirRNA (SEQ ID NO: 1) LNPs; firefly-luciferase luminescence; RAW 264.7 cells
Method: as §3

[6] = system: Hep G2 cells; assay: In vitro toxicity (CellTiter-Glo cell viability), Hep G2; format: cell-based; conditions: cirRNA (SEQ ID NO: 1) LNPs; Hep G2 cells;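 note: percent of untreated cells luminescence signal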
Method: (§4) RAW 264.7 and Hep G2 cells were transfected with 1 μg/mL RNA-LNPs. At 72 hours post transfection, cell viability was determined with the CellTiter-Glo® reagent kit, according to the kit protocol, measured by a luminometer.
(§5) The cell viability was calculated according to the following formula: […]

[7] = system: RAW 264.7 cells; assay: In vitro toxicity (CellTiter-Glo cell viability), RAW 264.7; format: cell-based; conditions: cirRNA (SEQ ID NO: 1) LNPs; RAW 264.7 cells;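 note: percent of untreated cells luminescence signal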
Method: as §4, §5

[8] = system: BALB/C mice; assay: In vivo expression, whole-body luminescence (IVIS); conditions: cirRNA (SEQ ID NO: 1) LNPs, BALB/C mice
Method: 6-8 week old, female BALB/C mice were injected with 0.05 mg*kg-1 of RNA-LNPs encoding for firefly-luciferase by intravenous injection. At 6 hours post injection, animals were intraperitoneally injected with 15 mg/ml of Luciferin substrate and whole-body luminescence was determined by a bioluminescent in vivo imaging system (IVIS).

| SMILES | PDI [1] | Size [1] | Zeta (mV) [2] [mV] | Encapsulation Efficiency % [3] [%] | In vitro Expression HepG2 [4] | In vitro Expression RAW [5] | In vitro Viability HepG2 [6] [%] | In vitro Viability RAW [7] [%] | In vivo Expression (Whole Body) [8] |
| --- | --- | --- | --- | --- | --- | --- | --- | --- | --- |
| CCCCC/C=C\C/C=C\CCCCCCCCN(CCCCCCCC(=O)OC(CCCCCCCC)CCCCCCCC)CCOC(=O)NCCN1CCOCC1 [Lipid 134, heptadecan-9-yl 8-((2-(((2-morpholinoethyl)carbamoyl)oxy)ethyl)((9Z,12Z)-octadeca-9,12-dien-1-yl)amino)octanoate] | 0.043 | 89.71 | −8.698 | 90 | 3.17E+04 | 5.25E+04 | 13 | 84 | 8.93E+05 |
| CCCCC/C=C\C/C=C\CCCCCCCCN(CCCCCCCC(=O)OC(CCCCCCCC)CCCCCCCC)CCOC(=O)NCCN1CCN(C)CC1 [Lipid 135, heptadecan-9-yl 8-((2-(((2-(4-methylpiperazin-1-yl)ethyl)carbamoyl)oxy)ethyl)((9Z,12Z)-octadeca-9,12-dien-1-yl)amino)octanoate] | 0.1211 | 150.9 | 8.469 | 100 | 2.30E+06 | 9.80E+04 | 91 | 103 | 3.51E+07 |
| CCCCCCOC(=O)CCCCCCCCCCN(CCCCCCCCCCC(=O)OCCCCCC)CCOC(=O)NCCN(C)C [Lipid 136, hexyl 10-(11-(hexyloxy)-11-oxoundecyl)-2-methyl-6-oxo-7-oxa-2,5,10-triazahenicosan-21-oate] | 0.146 | 143.7 | 16.11 | 95 | 2.15E+03 | 1.93E+02 | 20 | 8 | 6.14E+03 |
| CCCCCCOC(=O)CCCCCCCCCCN(CCCCCCCCCCC(=O)OCCCCCC)CCOC(=O)NCCCN(CC)CC [Lipid 137, hexyl 3-ethyl-12-(11-(hexyloxy)-11-oxoundecyl)-8-oxo-9-oxa-3,7,12-triazatricosan-23-oate] | 0.1423 | 224.1 | 19.29 | 92 | 1.57E+03 | 1.21E+02 | 12 | 9 | 1.84E+05 |
| CCCCCCOC(=O)CCCCCCCCCCN(CCCCCCCCCCC(=O)OCCCCCC)CCOC(=O)NCCN1CCN(C)CC1 [Lipid 138, dihexyl 11,11′-((2-(((2-(4-methylpiperazin-1-yl)ethyl)carbamoyl)oxy)ethyl)azanediyl)diundecanoate] | 0.1821 | 130.8 | 15.82 | 96 | 6.75E+01 | 9.75E+01 | 12 | 10 | 1.30E+05 |
| CCCCCCCCC(CCCCCCCC)OC(=O)CCCCCCCN(CCCCCCCCOC(=O)C(CCCCCC)CCCCCCCC)CCOC(=O)NCCCN(C)C (stereo not drawn) [Lipid 146, heptadecan-9-yl 11-(8-((2-hexyldecanoyl)oxy)octyl)-2-methyl-7-oxo-8-oxa-2,6,11-triazanonadecan-19-oate] | 0.2699 | 59.34 | 20.28 | 87 | 9.18E+05 | 8.92E+04 | 41 | 99 | 4.74E+06 |
| CCCCCCCCC(CCCCCCCC)OC(=O)CCCCCCCN(CCCCCCCCOC(=O)C(CCCCCC)CCCCCCCC)CCOC(=O)NCCCn1ccnc1 (stereo not drawn) [Lipid 147, 8-((2-(((3-(1H-imidazol-1-yl)propyl)carbamoyl)oxy)ethyl)(8-(heptadecan-9-yloxy)-8-oxooctyl)amino)octyl 2-hexyldecanoate] | 0.07303 | 53.54 | 4.888 | 86 | 1.60E+04 | 7.92E+03 | 87 | 65 | 5.02E+07 |
| CCCCCCCCC(CCCCCCCC)OC(=O)CCCCCCCN(CCCCCCCCOC(=O)C(CCCCCC)CCCCCCCC)CCOC(=O)NCCN1CCCCC1 (stereo not drawn) [Lipid 149, 8-((8-(heptadecan-9-yloxy)-8-oxooctyl)(2-(((2-(piperidin-1-yl)ethyl)carbamoyl)oxy)ethyl)amino)octyl 2-hexyldecanoate] | 0.02962 | 71.14 | 9.196 | 88 | 2.08E+05 | 1.91E+04 | 123 | 100 | 6.07E+07 |

Further lines, with some results ahead:

| PDI [1] | Size [1] | Zeta (mV) [2] [mV] | Encapsulation Efficiency % [3] [%] | SMILES | In vitro Expression HepG2 [4] | In vitro Expression RAW [5] | In vitro Viability HepG2 [6] [%] | In vitro Viability RAW [7] [%] | In vivo Expression (Whole Body) [8] |
| --- | --- | --- | --- | --- | --- | --- | --- | --- | --- |
| 0.05565 | 91.37 | 17.84 | 79 | CCCCCCCCCCCOC(=O)CCCCCN(CCCCCC(=O)OCCCCCCCCCCC)CCOC(=O)NCCN1CCCCC1 [Lipid 150, diundecyl 6,6′-((2-(((2-(piperidin-1-yl)ethyl)carbamoyl)oxy)ethyl)azanediyl)dihexanoate] | 1.44E+04 | 6.81E+02 | 114 | 104 | 7.27E+05 |
| 0.1693 | 98.37 | 20.18 | 89 | CCCCCCCCCCCOC(=O)CCCCCN(CCCCCC(=O)OCCCCCCCCCCC)CCOC(=O)NCCN1CCCC1 [Lipid 151, diundecyl 6,6′-((2-(((2-(pyrrolidin-1-yl)ethyl)carbamoyl)oxy)ethyl)azanediyl)dihexanoate] | 8.79E+03 | 3.27E+01 | 110 | 99 | 1.18E+05 |
| 0.09308 | 71.11 | 18.95 | 89 | CCCCCCCCCCCOC(=O)CCCCCN(CCCCCC(=O)OCCCCCCCCCCC)CCOC(=O)NCCCN(C)C [Lipid 153] | 1.95E+04 | 2.44E+02 | 120 | 104 | 1.02E+05 |
| 0.1144 | 75.25 | 25.23 | 90 | CCCCCCCCCCCOC(=O)CCCCCN(CCCCCC(=O)OCCCCCCCCCCC)CCOC(=O)NCCN(C)C [Lipid 154, undecyl 2-methyl-6-oxo-10-(6-oxo-6-(undecyloxy)hexyl)-7-oxa-2,5,10-triazahexadecan-16-oate] | 2.59E+05 | 2.36E+03 | 106 | 101 | 1.01E+05 |
| 0.1182 | 92.39 | 15.16 | 76 | CCCCCCCCCCCOC(=O)CCCCCN(CCCCCC(=O)OCCCCCCCCCCC)CCOC(=O)NCc1ncc[nH]1 [Lipid 155, diundecyl 6,6′-((2-((((1H-imidazol-2-yl)methyl)carbamoyl)oxy)ethyl)azanediyl)dihexanoate] | 2.72E+04 | 5.98E+02 | 111 | 101 | 5.77E+07 |
